In ChEMBL document CHEMBL5154691, “Discovery of novel verinurad analogs as dual inhibitors of URAT1 and GLUT9 with improved Druggability for the treatment of hyperuricemia” (Eur J Med Chem, 2022):

Columns and labels:
[1] = Half life in Sprague-Dawley rat at 5 mg/kg, iv measured upto 36 hrs by LC-MS/MS analysis; type: ADME, organism-based; settings: in vivo
[2] = Cytotoxicity against human HK-2 cells assessed as reduction in cell viability incubated for 48 hrs by MTT assay; type: toxicity, cell-based
[3] = Inhibition of URAT1 F358Y mutant (unknown origin)-mediated 14C-uric acid uptake expressed in HEK293 cells using 14C-uric acid as substrate preincubated for 30 mins followed by substrate addition and measured after 15 mins by liquid scintillation counting analysis; type: cell-based; settings: Homo sapiens
[4] = AUC (0 to infinity) in Sprague-Dawley rat at 5 mg/kg, po by LC-MS/MS analysis; type: ADME, organism-based; set-up: time infinity, dose 5 mg/kg, route po; settings: in vivo
[5] = Cmax in Sprague-Dawley rat at 5 mg/kg, po measured upto 36 hrs by LC-MS/MS analysis; type: ADME, organism-based; set-up: time < 36 hrs, dose 5 mg/kg, route po; settings: in vivo
[6] = Cytotoxicity against human HK-2 cells assessed as reduction in cell viability incubated for 24 hrs by MTT assay; type: toxicity, cell-based
[7] = Tmax in Sprague-Dawley rat at 5 mg/kg, po measured upto 36 hrs by LC-MS/MS analysis; type: ADME, organism-based; settings: in vivo
[8] = Inhibition of URAT1 F365Y mutant (unknown origin)-mediated 14C-uric acid uptake expressed in HEK293 cells using 14C-uric acid as substrate preincubated for 30 mins followed by substrate addition and measured after 15 mins by liquid scintillation counting analysis; type: cell-based; settings: Homo sapiens
[9] = Renal toxicity in xanthine and potassium oxonate-induced acute hyperuricemia Kunming mouse model assessed as blood urea nitrogen level at 10 mg/kg, po measured after 3 hrs; type: organism-based; settings: in vivo
[10] = target: T1, Solute carrier family 22 member 6 (Homo sapiens, UniProt Q4U2R8); test: Inhibition of OAT1 (unknown origin) expressed in HEK293 cells assessed as inhibition of 6-CFL uptake preincubated for 30 mins followed by incubation with 6-CFL and measured after 15 mins by fluorescence based analysis; type: toxicity, cell-based
T1 sequence (Q4U2R8 whole entry): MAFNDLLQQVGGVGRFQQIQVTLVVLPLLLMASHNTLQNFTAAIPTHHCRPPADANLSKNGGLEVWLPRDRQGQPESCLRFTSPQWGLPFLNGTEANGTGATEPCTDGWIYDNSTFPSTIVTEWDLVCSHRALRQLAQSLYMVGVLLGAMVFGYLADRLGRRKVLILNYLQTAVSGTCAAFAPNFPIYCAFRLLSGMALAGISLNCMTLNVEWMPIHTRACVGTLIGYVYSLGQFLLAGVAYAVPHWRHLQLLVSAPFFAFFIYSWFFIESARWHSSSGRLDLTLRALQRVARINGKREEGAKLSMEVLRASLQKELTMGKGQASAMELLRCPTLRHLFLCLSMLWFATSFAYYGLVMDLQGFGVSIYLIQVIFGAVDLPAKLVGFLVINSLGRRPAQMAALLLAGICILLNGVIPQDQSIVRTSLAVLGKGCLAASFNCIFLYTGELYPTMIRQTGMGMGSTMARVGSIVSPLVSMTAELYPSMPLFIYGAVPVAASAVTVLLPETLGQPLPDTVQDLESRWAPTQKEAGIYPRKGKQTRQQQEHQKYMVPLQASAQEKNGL

[11] = target: T2, Solute carrier family 2, facilitated glucose transporter member 9 (Homo sapiens) (UniProt Q9NRM0); test: Inhibition of GLUT9 (unknown origin) expressed in HEK293T cells assessed as inhibition of uric acid-induced current at 10 uM by whole cell patch clamp technique; type: cell-based
T2 sequence (whole entry): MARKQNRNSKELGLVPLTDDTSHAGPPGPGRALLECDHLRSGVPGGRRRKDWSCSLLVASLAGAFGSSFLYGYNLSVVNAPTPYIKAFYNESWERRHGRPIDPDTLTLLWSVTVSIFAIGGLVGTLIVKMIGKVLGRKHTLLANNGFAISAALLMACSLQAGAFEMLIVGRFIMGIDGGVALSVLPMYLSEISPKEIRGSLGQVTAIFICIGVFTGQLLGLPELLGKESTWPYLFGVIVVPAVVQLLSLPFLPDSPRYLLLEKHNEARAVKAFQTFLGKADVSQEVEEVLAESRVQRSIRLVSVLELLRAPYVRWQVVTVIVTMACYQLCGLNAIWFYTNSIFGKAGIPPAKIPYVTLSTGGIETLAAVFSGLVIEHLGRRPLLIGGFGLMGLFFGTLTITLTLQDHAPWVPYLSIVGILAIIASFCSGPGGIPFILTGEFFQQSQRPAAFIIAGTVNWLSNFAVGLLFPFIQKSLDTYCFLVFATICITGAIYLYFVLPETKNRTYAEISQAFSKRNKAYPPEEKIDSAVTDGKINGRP

[12] = target: T3, Solute carrier family 2, facilitated glucose transporter member 9 (Homo sapiens, UniProt Q9NRM0); test: Inhibition of GLUT9 (unknown origin) expressed in HEK293T cells assessed as inhibition of uric acid-induced current by whole cell patch clamp technique; type: cell-based
T3 sequence (Q9NRM0 whole entry): T2 sequence (whole entry)

Structure (SMILES): N#Cc1ccc(Nc2cnccc2SCc2ccccc2C(=O)[O-])c2ccccc12.[Na+]
- half-life [1]: 4.19 h
- IC50 at 48 h [2]: 167 µM
- IC50 [3]: 0.78 µM
- AUC(0-inf) [4]: 5660 ng·h/mL
- Cmax [5]: 7650 ng/mL
- IC50 at 24 h [6]: 208 µM
- Tmax [7]: 0.5 h
- IC50 [8]: 1.57 µM
- Activity [9]: Non-Toxic
- IC50 [10]: 32.1 µM
- inhibition [11]: 51%
- IC50 [12]: 9.37 µM
